Assays:
Format in all cases: functional
Mus musculus [1] = test: Neuroprotective activity in haloperidol-induced catalepsy Mus musculus Swiss albino (mouse) model assessed as mean descent time at 100 mg/kg, po administered 30 min before haloperidol challenge measured at 120 min post challenge
Mus musculus [2] = test: Neuroprotective activity in haloperidol-induced catalepsy Mus musculus Swiss albino (mouse) model assessed as mean descent time at 100 mg/kg, po administered 30 min before haloperidol challenge measured at 180 min post challenge
Mus musculus [3] = test: Neuroprotective activity in haloperidol-induced catalepsy Mus musculus Swiss albino (mouse) model assessed as mean descent time at 100 mg/kg, po administered 30 min before haloperidol challenge measured at 30 min post challenge
Mus musculus [4] = test: Neuroprotective activity in Mus musculus Swiss albino (mouse) model assessed as reduction in haloperidol-induced catalepsy at 100 mg/kg, ip administered 30 min before haloperidol challenge measured for 30 to 180 min; design: scale not given: the % may be the effect or the level left; details: route intraperitoneal
Mus musculus [5] = test: Neuroprotective activity in haloperidol-induced catalepsy Mus musculus Swiss albino (mouse) model assessed as mean descent time at 100 mg/kg, po administered 30 min before haloperidol challenge measured at 90 min post challenge
Mus musculus [6] = test: Neuroprotective activity in haloperidol-induced catalepsy Mus musculus Swiss albino (mouse) model assessed as mean descent time at 100 mg/kg, po administered 30 min before haloperidol challenge measured at 60 min post challenge
Mus musculus [7] = test: (§1) Neuroprotective activity in haloperidol-induced catalepsy Mus musculus Swiss albino (mouse) model assessed as GSH-Px activity per mg protein in brain homogenate at 100 mg/kg, po administered 30 min before haloperidol challenge measured after 4 hr post challenge by spectrophotometry (reference value: 2.129 +/- 0.06 U/mg protein)
Mus musculus [8] = test: as §1, with “as Cu-Zn-SOD” for “as GSH-Px”, “per gram” for “per mg”, “by NBT reduction assay” for “by spectrophotometry”, “value: 1.794” for “value: 2.129”, “+/- 0.03 U/g” for “+/- 0.06 U/mg”
Mus musculus [9] = test: as §1, with “inhibition of MDA equivalent TBARS release” for “GSH-Px activity”, “1.157” for “2.129”, “nmol/mg” for “U/mg”
Mus musculus [10] = test: Neuroprotective activity in haloperidol-induced catalepsy Mus musculus Swiss albino (mouse) model assessed as mean descent time at 100 mg/kg, po administered 30 min before haloperidol challenge measured at 150 min post challenge
Mus musculus [11] = test: Neuroprotective activity in haloperidol-induced catalepsy Mus musculus Swiss albino (mouse) model assessed as mean cumulative descent time at 100 mg/kg, po administered 30 min before haloperidol challenge (reference value: 33 +/- 1.34 min)
Mus musculus [12] = test: as §1, with “GSH level” for “GSH-Px activity”, “gram of” for “mg protein in”, “tissue” for “homogenate”, “23.45” for “2.129”, “0.23 ug/g tissue)” for “0.06 U/mg protein)”

`COc1ccccc1NC(=O)Nc1nc2c(ccc3ccccc32)s1` gave a Time (Mus musculus [1]) of 87 s, a Time (Mus musculus [2]) of 108 s and a Time (Mus musculus [3]) of 11 s. The Activity (Mus musculus [4]) was 76.9%, the Time (Mus musculus [5]) was 43 s and the Time (Mus musculus [6]) was 28 s. For the same molecule, the Activity (Mus musculus [7]) was 1.83 U/mg, the Activity (Mus musculus [8]) was 1.622 U/g protein and the Activity (Mus musculus [9]) was 2.504 nmol/mg protein. It also gave a Time (Mus musculus [10]) of 109 s, a Time (Mus musculus [11]) of 6.43 min and an Activity (Mus musculus [12]) of 16.8 µg/g.

— ChEMBL document CHEMBL3045060, “Synthesis of some urea and thiourea derivatives of naphtha[1,2-d]thiazol-2-amine as anti-Parkinsonian agents that cause neuroprotection against haloperidol-induced oxidative stress in mice” (2009)
